Measured values published in article PMC9080521, “Molecular basis of rutin inhibition of protein disulfide isomerase (PDI) by combined in silico and experimental methods” (RSC Advances, 2018).
≈ marks a conversion by molar mass, not a printed value. Where “and” joins values, the source holds several entries; their conditions need not be identical. Identical values can stand only once.

Legend:
full-length human PDI = full-length human PDI (Homo sapiens, UniProt P07237); experiment: Fluorescence-based direct binding assay; conditions: protein 18 μM, excitation 430 nm, emission 530 nm, n=3, Standard Error 0.18 μM; read-out: IC50 (binding affinity, fluorescence)
Experimental: (§1) 2. Binding affinity (IC50) of rutin to human or murine MBP-fused PDI proteins The MBP-fused PDI proteins (18 μМ) were incubated with a gradient of 10 rutin’s concentrations differed by 2- or 3-fold and 3 repetitions in 384-well black plate at room temperature for 30 min before measurements. The total assay volume was filled to 100 μL using the assay buffer (pH 7.4) contains 150 mM NaCl, 20 mM Tris, 1 mM EDTA, 1 mM β-ME and 5% glycerin. The fluorescence emission spectrum of the mixture were measured with the excitation at 430 nm and the emission at 530 nm at room temperature on a BioTek Synergy microplate reader with a sensitivity of 100. The data were analyzed by GraphPad Prism (Fig. S3).

human MBP-PDI-b′x = target: T1, human MBP-PDI-b′x (Homo sapiens, UniProt P07237); experiment: Fluorescence-based direct binding assay; conditions: protein 18 μM, excitation 430 nm, emission 530 nm, n=3, Standard Error 0.16 μM; read-out: IC50 (binding affinity, fluorescence)
T1 construct: The human MBP-PDI-b′x (235–369); His-tag; made in house; host or cells: E. coli BL21 (DE3)
Experimental: as §1

human MBP-PDI-b′xa′ = target: T2, human MBP-PDI-b′xa′ (Homo sapiens, UniProt P07237); experiment: Fluorescence-based direct binding assay; conditions: protein 18 μM, excitation 430 nm, emission 530 nm, n=3, Standard Error 0.14 μM; read-out: IC50 (binding affinity, fluorescence)
T2 construct: MBP-PDI-b′xa′(235–479); His-tag; made in house; host or cells: E. coli BL21 (DE3)
Experimental: as §1

murine MBP-mPDI-b′x = target: T3, murine MBP-mPDI-b′x (Mus musculus, UniProt P09103); experiment: Fluorescence-based direct binding assay; conditions: protein 18 μM, excitation 430 nm, emission 530 nm, n=3, Standard Error 0.15 μM; read-out: IC50 (binding affinity, fluorescence)
T3 construct: The murine MBP-mPDI-b′x (236–369); His-tag; made in house; host or cells: E. coli BL21 (DE3)
Experimental: as §1

murine MBP-mPDI-b′xa′ = target: T4, murine MBP-mPDI-b′xa′ (Mus musculus, UniProt P09103); experiment: Fluorescence-based direct binding assay; conditions: protein 18 μM, excitation 430 nm, emission 530 nm, n=3, Standard Error 0.15 μM; read-out: IC50 (binding affinity, fluorescence)
T4 construct: MBP-mPDI-b′xa′ (236–477); His-tag; made in house; host or cells: E. coli BL21 (DE3)
Experimental: as §1

MBP-PDI-b′xa′ E359A = target: T5, MBP-PDI-b′xa′ E359A (Homo sapiens, UniProt P07237, E359A); experiment: Isothermal titration calorimetry (ITC); type: binding; conditions: 25 °C
T5 construct: MBP-PDI-b′xa′(235–479); His-tag; made in house; host or cells: E. coli BL21 (DE3)
Experimental: (§2) Microcalorimetry titration of rutin to PDI recombinant and mutant proteins used a MicroCal ITC200 microcalorimeter (GE Healthcare). PDI recombinant proteins, which concentration ranges from 25 μM to 50 μM, were added into the cell (about 300 μL). Rutin, with concentration ranging from 500 μM to 1 mM, was injected from syringe to titrate the protein in cell (almost 40 μL). The experiment was performed at 25 °C with a equilibration time of 10 min, the reference power was set to 6.25 μcal s^−1. The process including 25 injections, each of 1, 2 or 2.5 μL rutin, in a duration of 3 s, and the interval time between two injections was 180 s. Data was analyzed with MicroCal Origin (MicroCal).
(§3) Next, we resorted to a more sensitive method, isothermal titration calorimetry (ITC), to measure the direct binding. Due to the weak interaction, this method requires large amounts of high-purity protein samples (about 240 μL at 20–50 μM) to be titrated by the highest concentration of rutin (its water solubility of about 200 μM), so that the release of heat as a result of complex formation reached plateau phase rapidly and was enough to be measured. A problem we encountered is that the starting phase of the S-shape curve of heat measurement cannot always be resolved using the typical titration program of ITC, thus affecting the accuracy of dissociation constant (Kd) measurement from the S-shape ITC curve. This was due to the use of equal volume of small molecule titrant (∼2.5 μL) used in the typical ITC titration. Therefore, we established an optimized ITC titration scheme by using variable drop sizes, which started with small drops (1 μL at first ten times of injection) and ended with large drops (2 μL). We thus obtained S-shape ITC curves with well-defined upper and lower platforms (Fig. 5 and S6 ^†), which allowed the accurate measurements of Kd values.

MBP-PDI-b′xa′ E359K = target: T6, MBP-PDI-b′xa′ E359K (Homo sapiens, UniProt P07237, E359K); experiment: Isothermal titration calorimetry (ITC); type: binding; conditions: 25 °C
T6 construct: MBP-PDI-b′xa′(235–479); His-tag; made in house; host or cells: E. coli BL21 (DE3)
Experimental: as §2, §3

MBP-PDI-b′xa′ H354A = target: T7, MBP-PDI-b′xa′ H354A (Homo sapiens, UniProt P07237, H354A); experiment: Isothermal titration calorimetry (ITC); type: binding
T7 construct: MBP-PDI-b′xa′(235–479); His-tag; made in house; host or cells: E. coli BL21 (DE3)
Experimental: as §2, §3

MBP-PDI-b′xa′ K328E = target: T8, MBP-PDI-b′xa′ K328E (Homo sapiens, UniProt P07237, K328E); experiment: Isothermal titration calorimetry (ITC); type: binding; conditions: 25 °C
T8 construct: MBP-PDI-b′xa′(235–479); His-tag; made in house; host or cells: E. coli BL21 (DE3)
Experimental: as §2, §3

MBP-PDI-b′xa′ L355R = target: T9, MBP-PDI-b′xa′ L355R (Homo sapiens, UniProt P07237, L355R); experiment: Isothermal titration calorimetry (ITC); type: binding; conditions: 25 °C
T9 construct: MBP-PDI-b′xa′(235–479); His-tag; made in house; host or cells: E. coli BL21 (DE3)
Experimental: as §2, §3

wt MBP-PDI-b′xa′ = target: T10, wt MBP-PDI-b′xa′ (Homo sapiens, UniProt P07237); experiment: Isothermal titration calorimetry (ITC); type: binding; conditions: 25 °C
T10 construct: MBP-PDI-b′xa′(235–479); His-tag; made in house; host or cells: E. coli BL21 (DE3)
Experimental: as §2, §3

Water solubility = type: physicochemical
PDI = tested on: PDI; design: method as in PMID 22565308, PMID 26240139; conditions: dose-dependent; cited from earlier work
ERp57 = tested on: ERp57; design: method as in PMID 22565308; conditions: cited from earlier work
ERp72 = tested on: ERp72; design: method as in PMID 22565308; conditions: cited from earlier work
thioredoxin = tested on: thioredoxin; design: method as in PMID 22565308; conditions: cited from earlier work

T6 sequence (P07237 235-479 E359K): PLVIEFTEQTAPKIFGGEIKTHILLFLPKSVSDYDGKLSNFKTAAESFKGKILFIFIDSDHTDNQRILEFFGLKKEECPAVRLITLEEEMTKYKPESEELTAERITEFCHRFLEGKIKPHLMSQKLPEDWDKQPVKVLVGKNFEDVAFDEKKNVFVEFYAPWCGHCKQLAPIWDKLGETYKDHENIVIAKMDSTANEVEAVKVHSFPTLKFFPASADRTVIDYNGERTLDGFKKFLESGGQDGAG
T9 sequence (P07237 235-479 L355R): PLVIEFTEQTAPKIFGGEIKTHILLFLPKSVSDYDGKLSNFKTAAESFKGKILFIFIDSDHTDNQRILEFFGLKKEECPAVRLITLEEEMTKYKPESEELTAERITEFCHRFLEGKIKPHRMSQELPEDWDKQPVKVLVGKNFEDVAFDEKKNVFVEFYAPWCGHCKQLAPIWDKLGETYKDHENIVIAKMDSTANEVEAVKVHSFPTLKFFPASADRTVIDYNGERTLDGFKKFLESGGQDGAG
T5 sequence (P07237 235-479 E359A): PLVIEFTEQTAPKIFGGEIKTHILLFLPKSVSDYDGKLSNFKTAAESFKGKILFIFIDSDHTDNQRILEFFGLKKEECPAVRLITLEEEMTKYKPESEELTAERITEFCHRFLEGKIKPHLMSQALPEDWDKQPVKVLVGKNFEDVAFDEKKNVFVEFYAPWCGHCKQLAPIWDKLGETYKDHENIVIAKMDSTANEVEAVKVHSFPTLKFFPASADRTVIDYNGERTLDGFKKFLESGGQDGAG
T7 sequence (P07237 235-479 H354A): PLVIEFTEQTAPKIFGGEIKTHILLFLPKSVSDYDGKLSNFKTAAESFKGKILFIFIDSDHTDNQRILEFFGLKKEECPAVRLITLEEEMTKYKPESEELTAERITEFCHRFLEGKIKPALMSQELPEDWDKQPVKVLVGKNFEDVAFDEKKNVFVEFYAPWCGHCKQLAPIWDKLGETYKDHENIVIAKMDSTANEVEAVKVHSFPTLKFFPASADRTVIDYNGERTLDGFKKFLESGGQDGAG
T8 sequence (P07237 235-479 K328E): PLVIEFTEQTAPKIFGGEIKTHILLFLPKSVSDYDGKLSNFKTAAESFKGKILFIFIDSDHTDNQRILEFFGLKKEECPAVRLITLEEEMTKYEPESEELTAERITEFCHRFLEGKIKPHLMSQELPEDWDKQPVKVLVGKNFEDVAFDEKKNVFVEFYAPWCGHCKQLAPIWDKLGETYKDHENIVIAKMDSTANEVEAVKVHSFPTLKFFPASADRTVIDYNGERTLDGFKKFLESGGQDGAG
T10 sequence (P07237 235-480): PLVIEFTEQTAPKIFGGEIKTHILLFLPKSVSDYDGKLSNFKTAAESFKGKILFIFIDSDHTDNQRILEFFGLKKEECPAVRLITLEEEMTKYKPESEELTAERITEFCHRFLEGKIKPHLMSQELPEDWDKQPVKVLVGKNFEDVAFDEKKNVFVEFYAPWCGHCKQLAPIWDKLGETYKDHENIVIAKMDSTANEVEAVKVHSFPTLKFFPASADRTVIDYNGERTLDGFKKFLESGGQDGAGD
full-length human PDI, sequence (P07237 18-508): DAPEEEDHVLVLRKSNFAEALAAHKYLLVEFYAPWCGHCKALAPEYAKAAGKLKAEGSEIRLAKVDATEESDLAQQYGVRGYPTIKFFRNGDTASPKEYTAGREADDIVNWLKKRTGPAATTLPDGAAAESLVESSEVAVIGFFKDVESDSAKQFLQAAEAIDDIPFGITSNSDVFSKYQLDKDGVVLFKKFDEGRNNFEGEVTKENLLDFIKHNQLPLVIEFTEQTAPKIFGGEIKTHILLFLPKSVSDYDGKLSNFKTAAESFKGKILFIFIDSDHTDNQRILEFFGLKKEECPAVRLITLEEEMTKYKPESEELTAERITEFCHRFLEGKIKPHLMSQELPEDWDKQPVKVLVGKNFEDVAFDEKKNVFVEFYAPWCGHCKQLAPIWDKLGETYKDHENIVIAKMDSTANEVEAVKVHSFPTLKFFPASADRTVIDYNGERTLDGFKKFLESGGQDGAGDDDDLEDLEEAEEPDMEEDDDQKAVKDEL
T1 sequence (P07237 235-369): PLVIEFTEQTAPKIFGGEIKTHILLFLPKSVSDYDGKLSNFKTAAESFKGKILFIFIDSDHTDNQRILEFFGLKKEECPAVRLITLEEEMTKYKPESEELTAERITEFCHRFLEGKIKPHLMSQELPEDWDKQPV
T2 sequence (P07237 235-479): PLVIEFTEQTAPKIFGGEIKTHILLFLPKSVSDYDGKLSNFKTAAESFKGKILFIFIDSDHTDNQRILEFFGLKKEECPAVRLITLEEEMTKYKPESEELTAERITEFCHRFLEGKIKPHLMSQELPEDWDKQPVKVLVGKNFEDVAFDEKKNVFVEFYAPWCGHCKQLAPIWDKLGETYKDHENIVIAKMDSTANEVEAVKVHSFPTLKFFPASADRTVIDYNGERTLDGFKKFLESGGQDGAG
T3 sequence (P09103 236-369): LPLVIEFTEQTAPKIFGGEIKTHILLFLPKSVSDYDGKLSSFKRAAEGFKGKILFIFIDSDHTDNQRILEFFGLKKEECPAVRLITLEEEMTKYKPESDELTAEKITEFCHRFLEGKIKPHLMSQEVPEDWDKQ
T4 sequence (P09103 236-477): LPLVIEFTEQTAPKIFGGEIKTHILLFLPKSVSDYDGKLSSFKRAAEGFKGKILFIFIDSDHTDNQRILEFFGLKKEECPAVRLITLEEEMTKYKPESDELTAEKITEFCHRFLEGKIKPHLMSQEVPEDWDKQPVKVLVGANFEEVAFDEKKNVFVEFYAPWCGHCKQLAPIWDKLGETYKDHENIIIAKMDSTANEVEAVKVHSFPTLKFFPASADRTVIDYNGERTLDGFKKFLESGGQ

C[C@@H]1O[C@@H](OC[C@H]2O[C@@H](Oc3c(-c4ccc(O)c(O)c4)oc4cc(O)cc(O)c4c3=O)[C@H](O)[C@@H](O)[C@@H]2O)[C@H](O)[C@H](O)[C@H]1O [rutin]
IC50 (full-length human PDI): 31.1 µM | IC50 (human MBP-PDI-b′x): 18.7 µM | IC50 (human MBP-PDI-b′xa′): 28.8 µM | IC50 (murine MBP-mPDI-b′x): 15.7 µM | IC50 (murine MBP-mPDI-b′xa′): 26.3 µM | Kd (MBP-PDI-b′xa′ E359A): 4.1 ± 0.74 µM | N (stoichiometry ratio) (MBP-PDI-b′xa′ E359A): 1.18 ± 0.03 | ΔG (MBP-PDI-b′xa′ E359A): -7.39 ± 0.49 kcal/mol | Kd (MBP-PDI-b′xa′ E359K): 4.48 ± 0.58 µM | N (stoichiometry ratio) (MBP-PDI-b′xa′ E359K): 1.21 ± 0.02 | ΔG (MBP-PDI-b′xa′ E359K): -7.31 ± 0.45 kcal/mol | decrease of binding to H354A mutant compared with wt MBP-PDI-b′xa′ (MBP-PDI-b′xa′ H354A; ITC Kd 5.98 vs 2.39 μM): about 3 times | Kd (MBP-PDI-b′xa′ H354A; ITC, 25 °C, H354A): 5.98 ± 1.08 µM | N (stoichiometry ratio) (MBP-PDI-b′xa′ H354A; ITC, 25 °C, H354A): 0.72 ± 0.03 | ΔG (MBP-PDI-b′xa′ H354A; ITC, 25 °C, H354A): -7.15 ± 0.86 kcal/mol | Kd (MBP-PDI-b′xa′ K328E): 2.29 ± 0.36 µM | N (stoichiometry ratio) (MBP-PDI-b′xa′ K328E): 0.86 ± 0.02 | ΔG (MBP-PDI-b′xa′ K328E): -7.72 ± 0.31 kcal/mol | Kd (MBP-PDI-b′xa′ L355R): 3.5 ± 0.39 µM | N (stoichiometry ratio) (MBP-PDI-b′xa′ L355R): 1.93 ± 0.03 | ΔG (MBP-PDI-b′xa′ L355R): -7.46 ± 0.23 kcal/mol | Kd (wt MBP-PDI-b′xa′): 2.31 µM and 2.39 µM | solubility (Water solubility): ~200 µM (≈ 122 µg/mL) | IC50 of inhibition of PDI activities (PDI): micromolar range | inhibition of ERp57 (ERp57): did not inhibit | inhibition of ERp72 (ERp72): did not inhibit | inhibition of thioredoxin (thioredoxin): did not inhibit
